Patent US8318940B2, “Naphthyridin-2 (1 H)-one compounds useful as antibacterials” (Glaxo Group Limited, priority 2009, dated 2012)

What follows are compounds tested on Mycobacterium tuberculosis H37Rv (assay: Mycobacterium tuberculosis H37Rv inhibition assay (MIC, resazurin)). Conditions: ATCC 25618 / H37Rv, H37Rv strain (ATCC25618), Middlebrook 7H9, 37° C. six days, resazurin fluorescence after 48 hours.
Assay type: cell-based
In the case of `O=c1ccc2ncc(F)cc2n1CCN1CCC(NCc2cnc(CO)c(Br)c2)CC1` [Example 6, 1-{2-[4-({[5-bromo-6-(hydroxymethyl)-3-pyridinyl]methyl}amino)-1-piperidinyl]ethyl}-7-fluoro-1,5-naphthyridin-2(1H)-one], the MIC is reported as ≤ 0.3 µg/mL.
With `Cl.O=c1ccc2ncc(F)cc2n1CCN1CC[C@H](NCc2cnc(CO)c(Cl)c2)[C@H](O)C1` [Example 4, 1-{2-[(3R,4S)-4-({[5-chloro-6-(hydroxymethyl)-3-pyridinyl]methyl}amino)-3-hydroxy-1-piperidinyl]ethyl}-7-fluoro-1,5-naphthyridin-2(1H)-one hydrochloride] the MIC was ≤ 0.3 µg/mL.
In the case of `O=c1ccc2ncc(F)cc2n1CCN1CCC(NCc2cnc(CO)c(Cl)c2)CC1` [Example 1, 1-{2-[4-({[5-chloro-6-(hydroxymethyl)-3-pyridinyl]methyl}amino)-1-piperidinyl]ethyl}-7-fluoro-1,5-naphthyridin-2(1H)-one], the MIC is reported as ≤ 0.3 µg/mL.
For `Cl.O=c1ccc2ncc(F)cc2n1CCN1CCC(NCc2cnc(CO)c(Cl)c2)CC1` [Example 2, 1-{2-[4-({[5-chloro-6-(hydroxymethyl)-3-pyridinyl]methyl}amino)-1-piperidinyl]ethyl}-7-fluoro-1,5-naphthyridin-2(1H)-one hydrochloride], the MIC was ≤ 0.3 µg/mL.
For `O=c1ccc2ncc(F)cc2n1CCN1CC[C@H](NCc2cnc(CO)c(Cl)c2)[C@H](O)C1` [Example 3, 1-{2-[(3R,4S)-4-({[5-chloro-6-(hydroxymethyl)-3-pyridinyl]methyl}amino)-3-hydroxy-1-piperidinyl]ethyl}-7-fluoro-1,5-naphthyridin-2(1H)-one], the MIC was ≤ 0.3 µg/mL.
`COc1cnc2ccc(=O)n(CCN3CCC(NCc4cnc(CO)c(Cl)c4)CC3)c2c1` [Example 5, 1-{2-[4-({[5-chloro-6-(hydroxymethyl)-3-pyridinyl]methyl}amino)-1-piperidinyl]ethyl}-7-(methyloxy)-1,5-naphthyridin-2(1H)-one] was tested, and the MIC was ≤ 0.3 µg/mL.
